IC50 data for 19 compounds are collected here from patent US8975417B2, “Pyrazolopyrrolidine derivatives and their use in the treatment of disease” (Novartis AG, priority 2013, dated 2015).

Test [1] deals with His-Brd3(20-477) (Homo sapiens (Human), UniProt Q15059). The test can be described thus: TR-FRET in-vitro binding assay for BRD3. The following applies: biochemical. In outline:
(§1)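 Assay buffer HEPES pH 7.5/NaCl/Tween20/BSA; protein solution 45 nM, peptide solution 60 nM acetyl-H4 (AcK5,8,12,16). Incubated 30 °C for 35 min; Eu-anti-His6 and SA-APC detection, TR-FRET read.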

For test [2], the target named is nuclear BRD4-NUT foci in HCC2494 NUT midline carcinoma cells (Homo sapiens (Human), UniProt O60885+Q86Y26). Nature of the test: Nut-foci formation assay. Format: cell-based. To be noted: 24 hours, read-out: HCS Brd4-NUT IC50. The essentials: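 Read-out is number and intensity of nuclear NUT foci by immunofluorescence imaging, relative to 0.1% DMSO set as 100. Compounds were tested as 3-fold series starting at 10 μM on HCC2494 NUT midline carcinoma cells for 24 h. Four-parameter fitting gave IC50.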

Test [3] addresses His-Brd2(60-472) (Homo sapiens (Human), UniProt P25440). Nature of the test: TR-FRET in-vitro binding assay for BRD2. To be noted: biochemical. In outline: as §1

His-Brd2(60-472), sequence (P25440 60-472): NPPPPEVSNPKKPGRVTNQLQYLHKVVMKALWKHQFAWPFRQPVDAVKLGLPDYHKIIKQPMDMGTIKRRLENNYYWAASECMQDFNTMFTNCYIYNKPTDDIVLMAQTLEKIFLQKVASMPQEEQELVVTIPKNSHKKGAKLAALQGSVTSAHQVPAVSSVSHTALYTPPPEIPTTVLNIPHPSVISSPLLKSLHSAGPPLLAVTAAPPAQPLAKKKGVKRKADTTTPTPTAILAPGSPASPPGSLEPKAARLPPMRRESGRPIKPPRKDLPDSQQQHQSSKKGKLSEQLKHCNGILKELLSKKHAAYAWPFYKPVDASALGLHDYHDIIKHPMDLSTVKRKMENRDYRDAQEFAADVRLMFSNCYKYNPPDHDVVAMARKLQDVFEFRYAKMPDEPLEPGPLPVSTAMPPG
His-Brd3(20-477), sequence (Q15059 20-477): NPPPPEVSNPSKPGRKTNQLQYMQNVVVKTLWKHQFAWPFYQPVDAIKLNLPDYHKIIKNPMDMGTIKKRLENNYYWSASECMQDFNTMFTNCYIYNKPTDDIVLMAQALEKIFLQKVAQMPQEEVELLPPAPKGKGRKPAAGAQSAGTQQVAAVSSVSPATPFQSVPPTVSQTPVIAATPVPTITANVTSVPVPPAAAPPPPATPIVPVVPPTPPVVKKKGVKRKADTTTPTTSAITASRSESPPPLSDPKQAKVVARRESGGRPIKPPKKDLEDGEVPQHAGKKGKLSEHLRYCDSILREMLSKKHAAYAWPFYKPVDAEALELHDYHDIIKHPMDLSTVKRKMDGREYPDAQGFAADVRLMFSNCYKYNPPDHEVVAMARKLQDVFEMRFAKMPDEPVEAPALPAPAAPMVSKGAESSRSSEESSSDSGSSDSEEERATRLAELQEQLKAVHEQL

One may read the IC50 as the concentration that inhibits the measured activity by half. In the case of `Cc1cc(N2C(=O)c3nn(C4COC4)c(C)c3C2c2ccc(Cl)cc2)cn2c(C)nnc12` (stereo not drawn) [Example 136, 4-(4-chlorophenyl)-5-(3,8-dimethyl-[1,2,4]triazolo[4,3-a]pyridin-6-yl)-3-methyl-2-(oxetan-3-yl)-4,5-dihydropyrrolo[3,4-c]pyrazol-6(2H)-one], the results for the IC50 in test [1], in test [2] and in test [3] were 0.13 µM, 0.0928 µM and 0.14 µM, respectively.

Take `Cc1nn(C2COC2)c2c1C(c1ccc(Cl)cc1)N(c1cc(C)c3nnc(C)n3c1)C2=O` (stereo not drawn) [Example 137, 4-(4-chlorophenyl)-5-(3,8-dimethyl-[1,2,4]triazolo[4,3-a]pyridin-6-yl)-3-methyl-1-(oxetan-3-yl)-4,5-dihydropyrrolo[3,4-c]pyrazol-6(1H)-one]: the IC50 was 0.1 µM in test [1], 0.0577 µM in test [2] and 0.092 µM in test [3].

Take `Cc1nn(C2CN(C)C2)c2c1C(c1ccc(Cl)cc1)N(c1cc(C)c(=O)n(C)c1)C2=O` (stereo not drawn) [Example 140, 4-(4-chlorophenyl)-5-(1,5-dimethyl-6-oxo-1,6-dihydropyridin-3-yl)-3-methyl-1-(1-methylazetidin-3-yl)-4,5-dihydropyrrolo[3,4-c]pyrazol-6(1H)-one]: the IC50 in test [1] was 0.44 µM; in test [2] it was 0.435 µM; in test [3], 0.42 µM.

Consider `Cc1cc(N2C(=O)c3nn(C(=O)N(C)C)c(C)c3C2c2ccc(Cl)cc2)cn(C)c1=O` (stereo not drawn) [Example 141, 4-(4-chlorophenyl)-5-(1,5-dimethyl-6-oxo-1,6-dihydropyridin-3-yl)-N,N,3-trimethyl-6-oxo-5,6-dihydropyrrolo[3,4-c]pyrazole-2(4H)-carboxamide], for which the IC50 in test [1] was found to be 0.13 µM; in test [2] it was 0.231 µM; in test [3] it was 0.18 µM.

As for `Cc1nn(C(=O)N(C)C)c2c1C(c1ccc(Cl)cc1)N(c1cc(C)c(=O)n(C)c1)C2=O` (stereo not drawn) [Example 142, 4-(4-chlorophenyl)-5-(1,5-dimethyl-6-oxo-1,6-dihydropyridin-3-yl)-N,N,3-trimethyl-6-oxo-5,6-dihydropyrrolo[3,4-c]pyrazole-1(4H)-carboxamide], the IC50 in test [1] stood at 0.15 µM; in test [2], 0.149 µM; in test [3] it was 0.18 µM.

`CNC(=O)n1nc(C)c2c1C(=O)N(c1cc(C)c(=O)n(C)c1)C2c1ccc(Cl)cc1` (stereo not drawn) [Example 143, 4-(4-chlorophenyl)-5-(1,5-dimethyl-6-oxo-1,6-dihydropyridin-3-yl)-N,3-dimethyl-6-oxo-5,6-dihydropyrrolo[3,4-c]pyrazole-1(4H)-carboxamide]: the IC50 in test [1] stood at 0.27 µM; in test [2], 0.206 µM; in test [3], 0.33 µM.

In the case of `CNC(=O)n1nc(C)c2c1C(=O)N(c1cc(C)c3nnc(C)n3c1)C2c1ccc(Cl)cc1` (stereo not drawn) [Example 145, 4-(4-chlorophenyl)-5-(3,8-dimethyl-[1,2,4]triazolo[4,3-a]pyridin-6-yl)-N,3-dimethyl-6-oxo-5,6-dihydropyrrolo[3,4-c]pyrazole-1(4H)-carboxamide], the IC50 in test [1] is 0.19 µM; in test [2] it was 0.108 µM; in test [3], 0.18 µM.

Regarding `CCc1c2c(nn1C(=O)N(C)C)C(=O)N(c1cc(C)c(=O)n(C)c1)C2c1ccc(Cl)cc1` (stereo not drawn) [Example 148, 4-(4-chlorophenyl)-5-(1,5-dimethyl-6-oxo-1,6-dihydropyridin-3-yl)-3-ethyl-N,N-dimethyl-6-oxo-5,6-dihydropyrrolo[3,4-c]pyrazole-2(4H)-carboxamide], the IC50 in test [1] was found to be 0.16 µM; in test [2], 0.118 µM; in test [3], 0.22 µM.

For the compound `Cc1nn(C(=O)N(C)C)c2c1[C@@H](c1ccc(Cl)cc1)N(c1cc(C)c3nnc(C)n3c1)C2=O` [Example 149, (R)-4-(4-chlorophenyl)-5-(3,8-dimethyl-[1,2,4]triazolo[4,3-a]pyridin-6-yl)-N,N,3-trimethyl-6-oxo-5,6-dihydropyrrolo[3,4-c]pyrazole-1(4H)-carboxamide], the IC50 was determined as 0.039 µM in test [1], 0.0353 µM in test [2] and 0.036 µM in test [3].

For the compound `Cc1cc(N2C(=O)c3nn(C(=O)N(C)C)c(C)c3[C@H]2c2ccc(Cl)cc2)cn2c(C)nnc12` [Example 150, (R)-4-(4-chlorophenyl)-5-(3,8-dimethyl-[1,2,4]triazolo[4,3-a]pyridin-6-yl)-N,N,3-trimethyl-6-oxo-5,6-dihydropyrrolo[3,4-c]pyrazole-2(4H)-carboxamide], the values for the IC50 in test [1], in test [2] and in test [3] were 0.12 µM, 0.0278 µM and 0.14 µM, respectively.

As for `Cc1nn(C2CNC2)c2c1C(c1ccc(Cl)cc1)N(c1cc(C)c3nnc(C)n3c1)C2=O` (stereo not drawn) [Example 151, 1-(azetidin-3-yl)-4-(4-chlorophenyl)-5-(3,8-dimethyl-[1,2,4]triazolo[4,3-a]pyridin-6-yl)-3-methyl-4,5-dihydropyrrolo[3,4-c]pyrazol-6(1H)-one], the IC50 was found to be 0.16 µM in test [1], 0.554 µM in test [2] and 0.15 µM in test [3].

For `Cc1cc(N2C(=O)c3nn(C4CNC4)c(C)c3C2c2ccc(Cl)cc2)cn2c(C)nnc12` (stereo not drawn) [Example 152, 2-(azetidin-3-yl)-4-(4-chlorophenyl)-5-(3,8-dimethyl-[1,2,4]triazolo[4,3-a]pyridin-6-yl)-3-methyl-4,5-dihydropyrrolo[3,4-c]pyrazol-6(2H)-one], the IC50 in test [1] came to 0.11 µM; in test [2], 1.35 µM; in test [3], 0.1 µM.

`CC(=O)N1CC(n2nc(C)c3c2C(=O)N(c2cc(C)c(=O)n(C)c2)C3c2ccc(Cl)cc2)C1` (stereo not drawn) [Example 153, 1-(1-acetylazetidin-3-yl)-4-(4-chlorophenyl)-5-(1,5-dimethyl-6-oxo-1,6-dihydropyridin-3-yl)-3-methyl-4,5-dihydropyrrolo[3,4-c]pyrazol-6(1H)-one]: the IC50 in test [1] turned out to be 0.13 µM; in test [2], 0.15 µM; in test [3] it was 0.16 µM.

Turning to `CC(=O)N1CC(n2nc(C)c3c2C(=O)N(c2cc(C)c4nnc(C)n4c2)C3c2ccc(Cl)cc2)C1` (stereo not drawn) [Example 154, 1-(1-acetylazetidin-3-yl)-4-(4-chlorophenyl)-5-(3,8-dimethyl-[1,2,4]triazolo[4,3-a]pyridin-6-yl)-3-methyl-4,5-dihydropyrrolo[3,4-c]pyrazol-6(1H)-one], the results for the IC50 in test [1], in test [2] and in test [3] were 0.12 µM, 0.208 µM and 0.12 µM, respectively.

Take `CCOC(=O)N1CC(n2nc(C)c3c2C(=O)N(c2cc(C)c(=O)n(C)c2)C3c2ccc(Cl)cc2)C1` (stereo not drawn) [Example 155, Ethyl 3-(4-(4-chlorophenyl)-5-(1,5-dimethyl-6-oxo-1,6-dihydropyridin-3-yl)-3-methyl-6-oxo-5,6-dihydropyrrolo[3,4-c]pyrazol-1(4H)-yl)azetidine-1-carboxylate]: the results for the IC50 in test [1], in test [2] and in test [3] were 0.076 µM, 0.106 µM and 0.08 µM, respectively.

`CCOC(=O)N1CC(n2nc(C)c3c2C(=O)N(c2cc(C)c4nnc(C)n4c2)C3c2ccc(Cl)cc2)C1` (stereo not drawn) [Example 156, Ethyl 3-(4-(4-chlorophenyl)-5-(3,8-dimethyl-[1,2,4]triazolo[4,3-a]pyridin-6-yl)-3-methyl-6-oxo-5,6-dihydropyrrolo[3,4-c]pyrazol-1(4H)-yl)azetidine-1-carboxylate]: the IC50 stood at 0.077 µM in test [1], 0.0433 µM in test [2] and 0.059 µM in test [3].

`Cc1nn(C2CN(C)C2)c2c1C(c1ccc(Cl)cc1)N(c1cc(C)c3nnc(C)n3c1)C2=O` (stereo not drawn) [Example 157, 4-(4-chlorophenyl)-5-(3,8-dimethyl-[1,2,4]triazolo[4,3-a]pyridin-6-yl)-3-methyl-1-(1-methylazetidin-3-yl)-4,5-dihydropyrrolo[3,4-c]pyrazol-6(1H)-one]: the concentration for half-maximal inhibition (IC50) in test [1] is 0.2 µM; in test [2] it was 0.0997 µM; in test [3] it was 0.077 µM.

For the compound `Cc1cc(N2C(=O)c3nn(C4CN(C)C4)c(C)c3C2c2ccc(Cl)cc2)cn2c(C)nnc12` (stereo not drawn) [Example 158, 4-(4-chlorophenyl)-5-(3,8-dimethyl-[1,2,4]triazolo[4,3-a]pyridin-6-yl)-3-methyl-2-(1-methylazetidin-3-yl)-4,5-dihydropyrrolo[3,4-c]pyrazol-6(2H)-one], the IC50 in test [1] is 0.093 µM; in test [2], 0.103 µM; in test [3], 0.098 µM.

For the compound `Cc1nn(C[C@H](O)C(F)(F)F)c2c1[C@@H](c1ccc(Cl)cc1)N(c1cc(C)c3nnc(C)n3c1)C2=O` [Example 167, (R)-4-(4-chlorophenyl)-5-(3,8-dimethyl-[1,2,4]triazolo[4,3-a]pyridin-6-yl)-3-methyl-1-((S)-3,3,3-trifluoro-2-hydroxypropyl)-4,5-dihydropyrrolo[3,4-c]pyrazol-6(1H)-one], the figures for the IC50 in test [1], in test [2] and in test [3] were 0.045 µM, 0.0333 µM and 0.042 µM, respectively.
